Like-named read-outs stand apart in the source and are kept apart here.
Experiments:
[1] = system: Caenorhabditis elegans strain PE255; experiment: In vivo C. elegans ATP status assay; settings: Caenorhabditis elegans, read-out: LEC LUM: lowest effect concentration for luminescence, a measure of nematode ATP content
hNSC = experiment: MMP assay in human neural stem cells (hNSC); assay type: cell-based; settings: Homo sapiens, Neural stem cell, 1 h, read-out: hNSC IC50 (MMP)
HepG2 cells [2] = experiment: Intracellular ATP content (cell viability) assay; assay type: cell-based, human; settings: Homo sapiens, HepG2, 40 h
HepG2 cells [3] = experiment: ROS-Glo hydrogen peroxide (ROS) assay; assay type: cell-based, human; settings: Homo sapiens, HepG2, 2 h, read-out: ROS (HepG2) EC50
[4] = system: HeLa cells expressing YFP-Parkin; experiment: Parkin translocation assay; assay type: cell-based, human
rat primary hepatocytes [5] = system: rat primary hepatocytes
HepG2 cells [6] = settings: cited from earlier work
[7] = system: Caenorhabditis elegans strain PE255; settings: PE255 [sur-5::luc+::gfp; rol-6(su1006)], Caenorhabditis elegans, in vivo
[8] = system: p53 (p53-bla HCT-116 cells); experiment: p53 β-lactamase reporter gene assay; assay type: cell-based, human; settings: 16 h incubation; mean±SD of three experiments
HepG2 cells [9] = experiment: cells; settings: Homo sapiens
rat primary hepatocytes [10] = experiment: MMP assay in rat primary hepatocytes; settings: Rattus norvegicus, Hepatocyte
[11] = system: isolated rat liver mitochondria; experiment: Oxygen consumption, Clark-type oxygen electrode; assay type: biochemical
[12] = system: Nrf2/ARE (ARE-bla HepG2 cells); experiment: ARE β-lactamase reporter gene assay; assay type: cell-based, human; settings: Homo sapiens, HepG2, 16 h, read-out: ARE (HepG2) EC50
[13] = system: Caenorhabditis elegans (Bristol N2); experiment: C. elegans larval development and growth assay; settings: Caenorhabditis elegans, read-out: LEC EXT: lowest effect concentration for extinction, a measure of nematode size

O=C1c2c(O)ccc([N+](=O)[O-])c2C(=O)c2c([N+](=O)[O-])ccc(O)c21 [1,8-Dihydroxy-4,5-dinitroanthraquinone]
minimal effective concentration [1]: 10 µM | IC50 (hNSC): 3000 nM | IC50 (HepG2 cells [2]; read-out: ATP (HepG2, galactose) IC50): 17000 nM | IC50 (HepG2 cells [2]; read-out: ATP (HepG2, glucose) IC50): 27000 nM | EC50 (HepG2 cells [3]): 34300 nM | Parkin recruitment [4]: Inactive | MMP assays efficacy (%) Rat Hepatocytes (rat primary hepatocytes [5]): -79±33% | Rat hepatocytes (efficacy) (MMP) (rat primary hepatocytes [5]): 16.09±6.94 ( −119±28.1 ) % | MMP assays efficacy (%) qHTS-HepG2 (HepG2 cells [6]): -86±5% | IC50 (HepG2 cells [6]; read-out: MMP assays IC50 (µM) qHTS-HepG2): 0.07 ± 0.04 µM | LEC (lowest effect concentration), ATP assay [7]: ≤ 10 µM | p53 (HCT-116) EC50 [8]: Inactive | IC50 (HepG2 cells [9]; HepG2, 1 h, read-out: HepG2 IC50 Galactose (MMP)): 2.81 µM | IC50 (HepG2 cells [9]; HepG2, 1 h, read-out: HepG2 IC50 Glucose (MMP)): 1.79 µM | IC50 (HepG2 cells [9]; HepG2, read-out: MMP assays IC50 (µM) HepG2): 0.45 µM | Emax (HepG2 cells [9]; HepG2, read-out: MMP assays efficacy (%) HepG2): 86% | IC50 (rat primary hepatocytes [10]; 1 h, read-out: Rat hepatocytes IC50 (MMP)): 16.1 µM | IC50 (rat primary hepatocytes [10]; read-out: MMP assays IC50 (µM) Rat Hepatocytes): 5.69 ± 2.62 µM | Potential Mechanism [11]: Uncoupler at low concentrations (0.8 - 4µM), and uncoupler + inhibitor at high concentrations (20-100 µM) | I-ADP, % of control (O2 consumption rate) ([11]; 0.16 µM): 106 (52.0) % of control | I-sub, % of control (O2 consumption rate) ([11]; 0.16 µM): 104 (16.8) % of control | II-ADP, % of control (O2 consumption rate) ([11]; 0.16 µM): 98 (75.7) % of control | II-sub, % of control (O2 consumption rate) ([11]; 0.16 µM): 98 (29.9) % of control | I-ADP, % of control (O2 consumption rate) ([11]; 0.8 µM): 102 (50.0) % of control | I-sub, % of control (O2 consumption rate) ([11]; 0.8 µM): 139 (22.3) % of control | II-ADP, % of control (O2 consumption rate) ([11]; 0.8 µM): 102 (78.8) % of control | II-sub, % of control (O2 consumption rate) ([11]; 0.8 µM): 132 (40.5) % of control | I-ADP, % of control (O2 consumption rate) ([11]; 4 µM): 119 (58.8) % of control | I-sub, % of control (O2 consumption rate) ([11]; 4 µM): 327 (52.6) % of control | II-ADP, % of control (O2 consumption rate) ([11]; 4 µM): 104 (80.3) % of control | II-sub, % of control (O2 consumption rate) ([11]; 4 µM): 206 (63.1) % of control | I-ADP, % of control (O2 consumption rate) ([11]; 20 µM): 95 (47.0) % of control | I-sub, % of control (O2 consumption rate) ([11]; 20 µM): 311 (50.0) % of control | II-ADP, % of control (O2 consumption rate) ([11]; 20 µM): 40 (30.9) % of control | II-sub, % of control (O2 consumption rate) ([11]; 20 µM): 108 (33.0) % of control | I-ADP, % of control (O2 consumption rate) ([11]; 100 µM): 35 (10.0) % of control | I-sub, % of control (O2 consumption rate) ([11]; 100 µM): 84 (10.0) % of control | II-ADP, % of control (O2 consumption rate) ([11]; 100 µM): 49 (17.8) % of control | II-sub, % of control (O2 consumption rate) ([11]; 100 µM): 141 (20.8) % of control | EC50 [12]: 2430 ± 1380 nM | minimal effective concentration [13]: 75 µM
